Experimental data: patent EP0244088A2, “1-Phenyl-3-benzazepine compounds and medicaments containing these compounds for treating gastrointestinal motility disorders” (SMITHKLINE BECKMAN CORPORATION, priority 1986, dated 1987)

Each compound was assayed on lower esophageal sphincter (LES) (assay: Determination of LES pressure in the anesthetized dog). Details: Canis lupus familiaris, iv, Effective Dose 20 for increase in resting LES pressure, mean of individual ED20 values (N>=3), read-out: ED20 mcg/kg, i.v.
Assay type: in vivo, dogs
Protocol: Method for Determination of LES Pressure in the Anesthetized Dog
Mongrel or beagle dogs, male and female, are anesthetized using sodium pentobarbital (35.0 mg/kg., I.V.). Sodium pentobarbital is then continuously infused (approximatemated 6.0 mg/kg/hr) to maintain deep anesthesia. Blood pressure is monitored via a catheter surgically implanted into the femoral artery and attached to a Gould's P231D transducer. A catheter is also implanted into the femoral vein to administer test drugs. Respiration is maintained by an endotracheal tube attached to a respirator. A continuously perfused manometric catheter system including a Dent sleeve to measure sphincter pressure (Dent, Gastroenterology 7l: 263-267, l976) is inserted into the esophagus and positioned so that intraluminal pressure is recorded from the body of the esophagus, the lower esophageal sphincter (LES) and the fundus of the stomach. The Dent sleeve catheter is perfused at a rate of 0.5 ml of water per minute for each lumen of the catheter by using an Arndorfer Hydraulic Capillary Infusion System. A cannula is implanted into the gastric antrum to allow drainage of the perfusate solution and prevent intestinal distension. Continuous tracings of esophageal, LES and fundus pressure are monitored on a Grass Polygraph (Model 7D). Correct positioning of the Dent sleeve is verified by noting a high pressure zone at the LES and by administration of an intravenous dose of 5-HT (usually l0-l5 mcg/kg) which contracts the LES while having little or no recordable effect on either the body of the esophagus or the fundus. After verification of placement of the sleeve, the animal is allowed to stabilize for approximately 30 minutes.
Compounds are administered intravenously, intraduodenally or intragastrically. In most cases, succeeding doses of the same or different compounds are given only after the LES pressure has returned to approximate predosing baseline values. In all cases, the magnitude of change in LES pressure is determined from the baseline pressure immediately prior to each treatment to the maximum pressure during treatment. Since the compounds used usually produce an immediate effect on LES pressure, no pretreatment time prior to measurement is necessary during this testing.
Direct assay techniques are used to estimate an Effective Dose 20 (ED₂₀) for the test compound in individual animals. The mean ED₂₀ and 95% confidence limits are determined using the individual ED₂₀ values from a group of animals (N=≧3) that received the same treatment.

Row | SMILES | ED20
1 | Oc1cc2c(cc1C(F)(F)F)CCNCC2c1ccccc1 (stereo not drawn) [compound 7, 8-Hydroxy-l-phenyl-7-trifluoromethyl-2,3,4,5-tetrahydro-lH-3-benzazepine] | 0.02 mg/kg
2 | CC(=O)Nc1cc2c(cc1O)C(c1ccccc1)CNCC2 (stereo not drawn) [compound 16, 7-Acetamido-8-hydroxy-l-phenyl-2,3,4,5-tetrahydro-lH-3-benzazepine] | < 2 mg/kg
3 | Cc1cc2c(cc1O)C(c1ccccc1)CNCC2 (stereo not drawn) [compound 5, 8-Hydroxy-7-methyl-l-phenyl-2,3,4,5-tetrahydro-lH-3-benzazepine] | 0.026 mg/kg
4 | Cc1cc2c(cc1O)C(c1ccc(O)cc1)CNCC2 (stereo not drawn) [compound 11, 8-Hydroxy-l-(4-hydroxyphenyl)-7-methyl-2,3,4,5-tetrahydro-lH-3-benzazepine] | 0.044 mg/kg
5 | COc1cc2c(cc1Br)CCN(C)CC2c1ccccc1 (stereo not drawn) [compound 8, 7-Bromo-8-methoxy-3-methyl-l-phenyl-2,3,4,5-tetrahydro-lH-3-benzazepine] | 0.079 mg/kg
6 | COCc1cc2c(cc1O)C(c1ccccc1)CNCC2 (stereo not drawn) [compound 13, 8-hydroxy-7-methoxymethyl-l-phenyl-2,3,4,5-tetrahydro-lH-3-benzazepine] | < 0.05 mg/kg
7 | OCc1cc2c(cc1O)C(c1ccccc1)CNCC2 (stereo not drawn) [compound 14, 8-hydroxy-7-hydroxymethyl-l-phenyl-2,3,4,5-tetrahydro-lH-3-benzazepine] | 0.1 mg/kg
8 | CN1CCc2cc(Cl)c(Cl)cc2C(c2ccccc2)C1 (stereo not shown) [compound 9] | 0.623 mg/kg
9 | CS(=O)(=O)c1cc2c(cc1O)CCNCC2c1ccccc1 (stereo not drawn) [compound 2, 7-Hydroxy-8-methylsulfonyl-l-phenyl-2,3,4,5-tetrahydro-lH-3-benzazepine] | 0.317 mg/kg
10 | CS(=O)(=O)Nc1cc2c(cc1O)CCNCC2c1ccccc1 (stereo not drawn) [compound 15, 7-hydroxy-8-methanesulfonamido-l-phenyl-2,3,4,5-tetrahydro-lH-3-benzazepine] | 0.5 mg/kg
11 | Oc1cc2c(cc1O)C(c1ccccc1)CNCC2 (stereo not drawn) [compound 10, 7,8-dihydroxy-l-phenyl-2,3,4,5-tetrahydro-lH-3-benzazepine] | 0.735 mg/kg
12 | CS(=O)(=O)c1cc2c(cc1O)C(c1ccccc1)CNCC2 (stereo not drawn) [compound 3, 8-Hydroxy-7-methylsulfonyl-l-phenyl-2,3,4,5-tetrahydro-lH-3-benzazepine] | 0.05 mg/kg
13 | Oc1cc2c(cc1Br)CCNCC2c1ccccc1 (stereo not drawn) [compound 4, 7-Bromo-8-hydroxy-l-phenyl-2,3,4,5-tetrahydro-lH-3-benzazepine] | 0.016 mg/kg
14 | CSc1cc2c(cc1O)C(c1ccccc1)CNCC2 (stereo not drawn) [compound 6, 8-hydroxy-7-methylthio-l-phenyl-2,3,4,5-tetrahydro-lH-3-benzazepine] | 0.017 mg/kg
15 | Oc1cc(Cl)c2c(c1)C(c1ccccc1)CNCC2 (stereo not drawn) [compound 1, 6-Chloro-8-hydroxy-l-phenyl-2,3,4,5-tetrahydro-lH-3-benzazepine] | 0.445 mg/kg

Same assay, conditions: at 250 (mcg/kg per column head), i.g.

Row | SMILES | change in LES pressure (baseline to maximum during treatment)
16 | COc1cc2c(cc1S(C)(=O)=O)CCNCC2c1ccccc1 (stereo not drawn) [compound 12, 8-Methoxy-7-methylsulfonyl-l-phenyl-2,3,4,5-tetrahydro-lH-3-benzazepine] | 15 mm Hg at 250 (i.g.)
